≈ marks a conversion by molar mass, not a printed value. Where two headings read alike, the source gives them in different places.
What was measured:
Bacillus subtilis = experiment: Stability of stock solutions on storage, potency by MIC/MBC; type: cell-based
[1] = system: Salmonella intraperitoneally; experiment: Anti-bacterial activity in vivo, infected mice; conditions: schedule −1, 0, +1, +2, +3; 200 mg/kg intrmuscularly
Proteus vulgaris = experiment: microbe, parasite or virus in culture; type: cell-based; conditions: for MIC: Proteus vulgaris
[2] = Blood levels after single-dose oral administration, UV spectroscopy; type: in vivo, Sprague-Dawley rats; conditions: for concentration at 4 h / concentration at 8 h: Sprague-Dawley, rat, serum, oral, read-out: Blood Level of Compound (1), Mean
Experimental: The aim of this example was to establish absorption and blood levels of Compound (1) in the rat after a single-dose, oral administration.
Sprague-Dawley rats (6 w/o, delivered 30 Jan, 2001) were acclimatized for 6 days in the Animal Facility under standardized environmental conditions (22° C. ±3° C., rel hum 30-70%, artificial light, 12 hrs light/12 hrs dark). Rats were fed a conventional laboratory diet with food and water ad lib and caged 5 rats per cage.
Compound (1) was prepared as an aqueous suspension in sterile LPW. At higher concentrations the suspension was sonicated to reduce particle size sufficiently to pass through the gavage needle.
Compound (1) suspensions and the water control were administered at approx […], in a single. One control and five treatment rats were weighed immediately before each dose administration, the dose volume calculated and the dose delivered by gavage (22 gauge stainless steel, smooth-balled end attached to a syringe).
Approximately 100-200 μL of blood (microfuge tube) was removed from the tail at 4 and 8 hours. Tails were prewarmed using a heat lamp and snipped at the tip with a large scalpel. Blood was massaged into a microfuge tube. Twenty four hour blood samples were not attempted because of the difficulty of snipping scarred tails and the distress caused to rats.
Blood was allowed to clot, centrifuged in a microfuge for 3 minutes (speed 14) and the serum separated and stored at −20° C.
Samples for treatment groups and for controls were thus pooled and a mean level of Compound (1) for each treatment group determined.
Compound (1) was extracted (x2) from serum by toluene and absorbance measured at 370 nm (Hitachi U2000). A spiked control using 100 μg/mL Compound (1) in 50% methanol/water (V/V) and untreated controls were also assayed.

[3] = system: Staphylococcus aureus strain 674; experiment: Impregnated agar serial double dilutions; conditions: meat peptone agar
Pseudoallescheria boydii = experiment: M38-P microdilution MIC/MFC; type: cell-based; conditions: Table 16, Dematiaceous fungi
C. hyointestinalis 54/4 = experiment: MIC/MMC against clinical strains of Campylobacter spp.; conditions: Table 18; clinical strain isolated from humans
[4] = system: Escherichia coli ATCC 25922; experiment: NCCLS broth microdilution MIC/MBC; type: cell-based; conditions: for MIC: Escherichia coli, ATCC25922, read-out: MIC
Aspergillus fumigatus = experiment: microbe, parasite or virus in culture; type: cell-based; conditions: for MIC: Aspergillus fumigatus
Pseudomonas = experiment: Agar plug diffusion, zone of retardation; type: cell-based, Pseudonomas aeruginosa; conditions: plug impregnated at 0.5%
[5] = system: Aspergillus fumigatus asexual exospores; experiment: Sporicidal activity; type: cell-based; conditions: 512 μg/mL in water+Tween-20; 24 hrs and 6 hrs
Experimental: Aspergillus fumigatus asexual exospores
Compound (1) in water+Tween-20® was tested for sporicidal activity up to 24 hrs.

Klebsiella oxytoca = experiment: Rate of kill, viable counts
[6] = system: Pseudomonas aeruginosa ATCC 27853; experiment: NCCLS broth microdilution MIC/MBC; type: cell-based; conditions: for MIC: Pseudomonas aeruginosa, ATCC27853, read-out: MIC
[7] = system: Campylobacter jejuni 54/1-2; experiment: MIC/MMC against clinical strains of Campylobacter spp.; conditions: Table 18; clinical strain isolated from humans
physchem = conditions: aqueous with cosolvent or surfactant or cyclodextrin
[8] = system: skin wounds infected by Streptococcus and Staphylococcus; experiment: Treatment of infected wounds, human volunteers; type: in vivo; conditions: 0.1% ointment for 3 days
Experimental: Human volunteers suffering from skin wounds infected by Streptococcus and Staphylococcus were treated with 0.1% Compounds (1) and (2) in an ointment base of vaseline, sheep fat, and sulfoxide.

[9] = stock 512 μg/mL stored 4° C., 0 weeks
[10] = stock 512 μg/mL stored 4° C., 2 weeks
[11] = stock 512 μg/mL stored 4° C., 4 weeks
[12] = stock 512 μg/mL stored 4° C., 6 weeks
[13] = stock 512 μg/mL stored 4° C., 8 weeks
[14] = stock 512 μg/mL stored 4° C., 10 weeks
[15] = stock 512 μg/mL stored 4° C., 12 weeks
[16] = stock 512 μg/mL stored RT, 0 weeks
[17] = stock 512 μg/mL stored RT, 2 weeks
[18] = stock 512 μg/mL stored RT, 4 weeks
[19] = stock 512 μg/mL stored RT, 6 weeks
[20] = stock 512 μg/mL stored RT, 8 weeks
[21] = stock 512 μg/mL stored RT, 10 weeks
[22] = stock 512 μg/mL stored RT, 12 weeks
[23] = stock 512 μg/mL stored −20° C., 0 weeks
[24] = stock 512 μg/mL stored −20° C., 2 weeks
[25] = stock 512 μg/mL stored −20° C., 4 weeks
[26] = stock 512 μg/mL stored −20° C., 6 weeks
[27] = stock 512 μg/mL stored −20° C., 8 weeks
[28] = stock 512 μg/mL stored −20° C., 10 weeks
[29] = stock 512 μg/mL stored −20° C., 12 weeks
[30] = before exposure, MHB, read-out: Standard MIC Initial

In the case of C/C(=C\c1ccc2c(c1)OCO2)[N+](=O)[O-] [Compound (1)], the “stability of dilute solutions on storage” value (Bacillus subtilis; 12 weeks at 4° C. and −20° C.) is reported as “very stable”, the MBC (Bacillus subtilis; [9]) is reported as 8 µg/mL (≈ 38.6 µM) and the MIC (Bacillus subtilis; [9]) is reported as 4 µg/mL (≈ 19.3 µM). The MBC (Bacillus subtilis; [10]) was 8 µg/mL (≈ 38.6 µM), the MIC (Bacillus subtilis; [10]) was 4 µg/mL (≈ 19.3 µM) and the MBC (Bacillus subtilis; [11]) was 16 µg/mL (≈ 77.2 µM). It also gave an MIC (Bacillus subtilis; [11]) of 4 µg/mL (≈ 19.3 µM), an MBC (Bacillus subtilis; [12]) of 16 µg/mL (≈ 77.2 µM) and an MIC (Bacillus subtilis; [12]) of 4 µg/mL (≈ 19.3 µM). The MBC (Bacillus subtilis; [13]) was 16 µg/mL (≈ 77.2 µM), the MIC (Bacillus subtilis; [13]) was 4 µg/mL (≈ 19.3 µM) and the MBC (Bacillus subtilis; [14]) was 16 µg/mL (≈ 77.2 µM). The MIC (Bacillus subtilis; [14]) was 4 µg/mL (≈ 19.3 µM), the MBC (Bacillus subtilis; [15]) was 16 µg/mL (≈ 77.2 µM) and the MIC (Bacillus subtilis; [15]) was 4 µg/mL (≈ 19.3 µM). The MBC (Bacillus subtilis; [16]) was 8 µg/mL (≈ 38.6 µM), the MIC (Bacillus subtilis; [16]) was 4 µg/mL (≈ 19.3 µM) and the MBC (Bacillus subtilis; [17]) was 8 µg/mL (≈ 38.6 µM). The MIC (Bacillus subtilis; [17]) was 4 µg/mL (≈ 19.3 µM), the MBC (Bacillus subtilis; [18]) was 8 µg/mL (≈ 38.6 µM) and the MIC (Bacillus subtilis; [18]) was 4 µg/mL (≈ 19.3 µM). For the same molecule, the MBC (Bacillus subtilis; [19]) was 16 µg/mL (≈ 77.2 µM), the MIC (Bacillus subtilis; [19]) was 4 µg/mL (≈ 19.3 µM) and the MBC (Bacillus subtilis; [20]) was 16 µg/mL (≈ 77.2 µM). It also gave an MIC (Bacillus subtilis; [20]) of 8 µg/mL (≈ 38.6 µM), an MBC (Bacillus subtilis; [21]) of 16 µg/mL (≈ 77.2 µM) and an MIC (Bacillus subtilis; [21]) of 8 µg/mL (≈ 38.6 µM). For the same molecule, the MBC (Bacillus subtilis; [22]) was 16 µg/mL (≈ 77.2 µM), the MIC (Bacillus subtilis; [22]) was 8 µg/mL (≈ 38.6 µM) and the MBC (Bacillus subtilis; [23]) was 8 µg/mL (≈ 38.6 µM). It also gave an MIC (Bacillus subtilis; [23]) of 4 µg/mL (≈ 19.3 µM), an MBC (Bacillus subtilis; [24]) of 8 µg/mL (≈ 38.6 µM) and an MIC (Bacillus subtilis; [24]) of 4 µg/mL (≈ 19.3 µM). For the same molecule, the MBC (Bacillus subtilis; [25]) was 16 µg/mL (≈ 77.2 µM), the MIC (Bacillus subtilis; [25]) was 4 µg/mL (≈ 19.3 µM) and the MBC (Bacillus subtilis; [26]) was 16 µg/mL (≈ 77.2 µM). For the same molecule, the MIC (Bacillus subtilis; [26]) was 4 µg/mL (≈ 19.3 µM), the MBC (Bacillus subtilis; [27]) was 16 µg/mL (≈ 77.2 µM) and the MIC (Bacillus subtilis; [27]) was 4 µg/mL (≈ 19.3 µM). For the same molecule, the MBC (Bacillus subtilis; [28]) was 16 µg/mL (≈ 77.2 µM), the MIC (Bacillus subtilis; [28]) was 4 µg/mL (≈ 19.3 µM) and the MBC (Bacillus subtilis; [29]) was 16 µg/mL (≈ 77.2 µM). For the same molecule, the MIC (Bacillus subtilis; [29]) was 4 µg/mL (≈ 19.3 µM), the “Cumulative mortality (test)” value [1] was 47 and the “Incubation period days (test)” value [1] was 0 days. The MIC (Proteus vulgaris; after 12 weeks continuous exposure, read-out: Standard MIC Final) was 128 µg/mL (≈ 618 µM), the MIC (Proteus vulgaris; [30]) was 128 µg/mL (≈ 618 µM) and the “7-Day MIC Range” value (Proteus vulgaris; Range to Week 12, No Rising Trend) was 64 to 256 µg/mL. For the same molecule, the “Blood Level of Compound (1), Mean” value ([2]; 1250 mg/kg, 4 + 8 h) was 27000 ng/mL, the concentration at 4 h ([2]; 500 mg/kg, 500 mg/kg fasted) was 12000 ng/mL and the concentration at 8 h ([2]; 500 mg/kg, 500 mg/kg fasted) was 14000 ng/mL. The concentration at 4 h ([2]; 500 mg/kg, 500 mg/kg fed) was 8000 ng/mL, the concentration at 8 h ([2]; 500 mg/kg, 500 mg/kg fed) was 17000 ng/mL and the concentration at 4 h ([2]; 1000 mg/kg, 1000 mg/kg fasted) was 26000 ng/mL. For the same molecule, the concentration at 8 h ([2]; 1000 mg/kg, 1000 mg/kg fasted) was 21000 ng/mL, the “oral dose reaching the blood” value ([2]; absorption from the gastrointestinal tract) was “approximately 2%” and the “Minimal % Compound (1) giving complete inhibition of test culture” value [3] was 0.015%. The MMC (Pseudoallescheria boydii) was 4 µg/mL, the MIC (Pseudoallescheria boydii; read-out: MIC) was 2 µg/mL (≈ 9.65 µM) and the MMC (C. hyointestinalis 54/4) was 2. It also gave an MIC ([4]; Table 9, 35° C., 24 hours) of over 512 µg/mL, an MIC ([4]; Table 17, 2 or 3 replicates) of over 512 µg/mL and an MMC ([4]; Table 9, 35° C., 24 hours) of over 512 µg/mL. The MMC ([4]; Table 17, 2 or 3 replicates) was over 512 µg/mL, the MIC (Aspergillus fumigatus; Table 20, […], after 12 weeks continuous exposure, read-out: MIC Final) was 8 µg/mL (≈ 38.6 µM) and the MIC (Aspergillus fumigatus; Table 20, […], parent strain, read-out: MIC Initial) was 8 µg/mL (≈ 38.6 µM). The MIC (Aspergillus fumigatus; [30]) was 8 µg/mL (≈ 38.6 µM), the “7-Day MIC Range” value (Aspergillus fumigatus; to Wk 5) was 8-32 to Wk 5 μg/mL and the “Size of zone of retardation of the growth” value (Pseudomonas) was 0. For the same molecule, the sporicidal activity [5] was “killed A. fumigatus exospores at 24 hrs but not 6 hrs”, the “Log reduction in viable count” value (Klebsiella oxytoca; 256 μg/mL) was 0 and the “Log reduction in viable count” value (Klebsiella oxytoca; 512 μg/mL) was 0. For the same molecule, the MIC ([6]; Table 9, 35° C., 24 hours) was over 512 µg/mL, the MIC ([6]; Table 17, 2 or 3 replicates) was over 512 µg/mL and the MMC ([6]; Table 9, 35° C., 24 hours) was over 512 µg/mL. It also gave an MMC ([6]; Table 17, 2 or 3 replicates) of over 512 µg/mL, an MMC [7] of 2 and a solubility (physchem) of 1000 µg/mL (≈ 4830 µM). The “clearing of infected wound” value [8] was “cleared the wound completely of pus”.

Source: patent publication US20150258059A1, “ANTIMICROBIAL AND RADIOPROTECTIVE COMPOUNDS” (BioDiem, Ltd, priority 2001, published 2015)
